Results reported in ChEMBL document CHEMBL1152526, “Synthesis of C(7) modified chrysin derivatives designing to inhibit beta-ketoacyl-acyl carrier protein synthase III (FabH) as antibiotics” (Bioorg Med Chem, 2009).
Values after ≈ are worked out from the molar mass of the structure shown.

Key:
[1] = tested on: Staphylococcus aureus; test: Antibacterial activity against Staphylococcus aureus after 24 hrs by MTT assay; assay type: functional
[2] = tested on: Pseudomonas fluorescens; test: Antibacterial activity against Pseudomonas fluorescens after 24 hrs by MTT assay; assay type: functional
[3] = tested on: Bacillus subtilis; test: Antibacterial activity against Bacillus subtilis after 24 hrs by MTT assay; assay type: functional
[4] = tested on: Escherichia coli; test: Antibacterial activity against Escherichia coli after 24 hrs by MTT assay; assay type: functional
[5] = Inhibition of Escherichia coli FabH overexpressed in Escherichia coli DH10B cells by liquid scintillation counting

Structure (SMILES) | MIC [1] [µg/mL] | MIC [2] [µg/mL] | MIC [3] [µg/mL] | MIC [4] [µg/mL] | IC50 [5] [µM]
CCCCN(CCCC)CCOc1cc(O)c2c(=O)cc(-c3ccccc3)oc2c1 | > 50 | > 50 | > 50 | > 50 | 
O=c1cc(-c2ccccc2)oc2cc(O)cc(O)c12 [CHRYSIN] | > 50 | > 50 | > 50 | > 50 | 
CCCCN(CCCC)CCCOc1cc(O)c2c(=O)cc(-c3ccccc3)oc2c1 | > 50 | > 50 | > 50 | > 50 | 
NCCCNCCOc1cc(O)c2c(=O)cc(-c3ccccc3)oc2c1 | > 50 | > 50 | > 50 | > 50 | 
CCCN(CCC)CCCOc1cc(O)c2c(=O)cc(-c3ccccc3)oc2c1 | > 50 | 25 (≈ 63.2 µM) | 25 (≈ 63.2 µM) | 25 (≈ 63.2 µM) | 
CN1CCN(CCOc2cc(O)c3c(=O)cc(-c4ccccc4)oc3c2)CC1 | 25 (≈ 65.7 µM) | 25 (≈ 65.7 µM) | 50 (≈ 131 µM) | 12.5 (≈ 32.9 µM) | 
CCN(CC)CCCOc1cc(O)c2c(=O)cc(-c3ccccc3)oc2c1 | > 50 | > 50 | > 50 | > 50 | 
O=c1cc(-c2ccccc2)oc2cc(OCCCNCCO)cc(O)c12 | 25 (≈ 70.3 µM) | 12.5 (≈ 35.2 µM) | 12.5 (≈ 35.2 µM) | 6.25 (≈ 17.6 µM) | 
CCCN(CCC)CCOc1cc(O)c2c(=O)cc(-c3ccccc3)oc2c1 | > 50 | > 50 | > 50 | > 50 | 
CCN(CC)CCOc1cc(O)c2c(=O)cc(-c3ccccc3)oc2c1 | > 50 | > 50 | > 50 | > 50 | 70
CCCNCCOc1cc(O)c2c(=O)cc(-c3ccccc3)oc2c1 | 50 (≈ 147 µM) | 25 (≈ 73.7 µM) | 50 (≈ 147 µM) | 25 (≈ 73.7 µM) | 54

More lines, now with the values ahead:

MIC [1] [µg/mL] | MIC [2] [µg/mL] | MIC [3] [µg/mL] | MIC [4] [µg/mL] | IC50 [5] [µM] | Structure (SMILES)
12.5 (≈ 35.4 µM) | 12.5 (≈ 35.4 µM) | 25 (≈ 70.7 µM) | 12.5 (≈ 35.4 µM) |  | CCCNCCCOc1cc(O)c2c(=O)cc(-c3ccccc3)oc2c1
25 (≈ 71.1 µM) | 12.5 (≈ 35.6 µM) | 25 (≈ 71.1 µM) | 6.25 (≈ 17.8 µM) |  | O=c1cc(-c2ccccc2)oc2cc(OCCN3CCCC3)cc(O)c12
25 (≈ 68.2 µM) | 6.25 (≈ 17.1 µM) | 25 (≈ 68.2 µM) | 12.5 (≈ 34.1 µM) | 11.2 | O=c1cc(-c2ccccc2)oc2cc(OCCN3CCNCC3)cc(O)c12
1.56 (≈ 3.23 µM) | 3.13 (≈ 6.47 µM) | 1.56 (≈ 3.23 µM) | 3.13 (≈ 6.47 µM) |  | NC[C@H]1O[C@H](O[C@H]2[C@H](O)[C@@H](O[C@H]3O[C@H](CO)[C@@H](O)[C@H](N)[C@H]3O)[C@H](N)C[C@@H]2N)[C@H](N)[C@@H](O)[C@@H]1O [BEKANAMYCIN]
12.5 (≈ 34 µM) | 12.5 (≈ 34 µM) | 25 (≈ 68 µM) | 12.5 (≈ 34 µM) |  | CCCCNCCCOc1cc(O)c2c(=O)cc(-c3ccccc3)oc2c1
6.25 (≈ 16.4 µM) | 12.5 (≈ 32.9 µM) | 12.5 (≈ 32.9 µM) | 3.13 (≈ 8.23 µM) | 6.6 | O=c1cc(-c2ccccc2)oc2cc(OCCCN3CCNCC3)cc(O)c12
3.13 (≈ 8.57 µM) | 6.25 (≈ 17.1 µM) | 6.25 (≈ 17.1 µM) | 1.56 (≈ 4.27 µM) | 3.1 | O=c1cc(-c2ccccc2)oc2cc(OCCCN3CCCC3)cc(O)c12
12.5 (≈ 34.2 µM) | 12.5 (≈ 34.2 µM) | 25 (≈ 68.4 µM) | 12.5 (≈ 34.2 µM) |  | O=c1cc(-c2ccccc2)oc2cc(OCCN3CCCCC3)cc(O)c12
3.13 (≈ 7.93 µM) | 12.5 (≈ 31.7 µM) | 6.25 (≈ 15.8 µM) | 6.25 (≈ 15.8 µM) | 5.2 | CN1CCN(CCCOc2cc(O)c3c(=O)cc(-c4ccccc4)oc3c2)CC1
